Laboratory results reported in ChEMBL document CHEMBL5715958 (Mol Cancer Res, 2018).
The source made the active and inactive calls. No cut-off for these calls is given here.

How the values were obtained:
[1] = molecular target: Tyrosine-protein kinase Lyn (Homo sapiens) (UniProt P07948); test: Inhibition of MIB binding to LYN in human NCI-H2228 cells at 0.01 to 10 uM incubated for 1 hr by MIB/MS competitive binding analysis; type: cell-based; settings: dose 0.01-10 µM
[2] = molecular target: Tyrosine-protein kinase Yes (Homo sapiens) (UniProt P07947); test: Inhibition of MIB binding to YES1 in human NCI-H2228 cells at 0.01 to 10 uM incubated for 1 hr by MIB/MS competitive binding analysis; type: cell-based; settings: dose 0.01-10 µM
[3] = molecular target: Calcium/calmodulin-dependent protein kinase type II subunit beta (Homo sapiens, UniProt Q13554); test: Inhibition of human CAMK2beta preincubated with compound for 20 mins followed by [33P]ATP addition and measured after 2 hrs by filter binding method
[4] = molecular target: Calcium/calmodulin-dependent protein kinase type II subunit delta (Homo sapiens, UniProt Q13557); test: Inhibition of human CAMK2delta preincubated with compound for 20 mins followed by [33P]ATP addition and measured after 2 hrs by filter binding method
[5] = molecular target: Calcium/calmodulin-dependent protein kinase type II subunit gamma (Homo sapiens, UniProt Q13555); test: Inhibition of human CAMK2gamma preincubated with compound for 20 mins followed by [33P]ATP addition and measured after 2 hrs by filter binding method
RKO = test: Effect on beta-catenin protein level in human RKO cells at 5 uM incubated for 6 hrs by Western blotting analysis; type: functional, cell-based
L-M(TK-) = test: Effect on beta-catenin protein level in mouse L-M(TK-) cells at 5 uM incubated for 6 hrs by Western blotting analysis; type: functional, cell-based
[6] = molecular target: Cyclin-dependent kinase 4 (Homo sapiens) (UniProt P11802); test: Inhibition of MIB binding to CDK4 in human NCI-H2228 cells at 0.01 to 10 uM incubated for 1 hr by Western blotting analysis; type: cell-based; settings: dose 0.01-10 µM
[7] = molecular target: Glycogen synthase kinase-3 beta (Homo sapiens) (UniProt P49841); test: Inhibition of MIB binding to GSK3beta in human NCI-H2228 cells at 0.01 to 10 uM incubated for 1 hr by Western blotting analysis; type: cell-based; settings: dose 0.01-10 µM
[8] = molecular target: Dual specificity mitogen-activated protein kinase kinase 1 (Homo sapiens) (UniProt Q02750); test: Inhibition of MIB binding to MEK1 in human NCI-H2228 cell lysate at high dose incubated for 1 hr by Western blotting analysis; type: subcellular
[9] = molecular target: Dual specificity mitogen-activated protein kinase kinase 2 (Homo sapiens) (UniProt P36507); test: Inhibition of MIB binding to MEK2 in human NCI-H2228 cell lysate at high dose incubated for 1 hr by Western blotting analysis; type: subcellular; settings: dose 3-3000 µM
[10] = molecular target: Tyrosine-protein kinase receptor UFO (Homo sapiens) (UniProt P30530); test: Inhibition of MIB binding to AXL in human NCI-H2228 cell lysate at high dose incubated for 1 hr by Western blotting analysis; type: subcellular; settings: dose 3-3000 µM
[11] = molecular target: Dual specificity mitogen-activated protein kinase kinase 1 (Homo sapiens) (UniProt Q02750); test: Inhibition of MIB binding to MEK1 in human NCI-H2228 cells at 3 to 3000 uM incubated for 1 hr by Western blotting analysis; type: cell-based; settings: dose 3-3000 µM
[12] = molecular target: Dual specificity mitogen-activated protein kinase kinase 2 (Homo sapiens) (UniProt P36507); test: Inhibition of MIB binding to MEK2 in human NCI-H2228 cells at 3 to 3000 uM incubated for 1 hr by Western blotting analysis; type: cell-based; settings: dose 3-3000 µM
[13] = molecular target: Tyrosine-protein kinase receptor UFO (Homo sapiens) (UniProt P30530); test: Inhibition of MIB binding to AXL in human NCI-H2228 cells at 3 to 3000 uM incubated for 1 hr by Western blotting analysis; type: cell-based; settings: dose 3-3000 µM
[14] = molecular target: Dual specificity mitogen-activated protein kinase kinase 1 (Homo sapiens) (UniProt Q02750); test: Inhibition of MIB binding to MEK1 in human NCI-H2228 cell lysate at 3 to 3000 uM pre-incubated with MIB followed by compound addition measured after 1 hr by Western blotting analysis; type: subcellular; settings: dose 3-3000 µM
[15] = molecular target: Dual specificity mitogen-activated protein kinase kinase 2 (Homo sapiens) (UniProt P36507); test: Inhibition of MIB binding to MEK2 in human NCI-H2228 cell lysate at 3 to 3000 uM pre-incubated with MIB followed by compound addition measured after 1 hr by Western blotting analysis; type: subcellular; settings: dose 3-3000 µM
[16] = molecular target: Tyrosine-protein kinase receptor UFO (Homo sapiens) (UniProt P30530); test: Inhibition of MIB binding to AXL in human NCI-H2228 cell lysate at 3 to 3000 uM pre-incubated with MIB followed by compound addition measured after 1 hr by Western blotting analysis; type: subcellular; settings: dose 3-3000 µM
Mus musculus [17] = test: Inhibition of MIB binding to MEK1 in mouse kidney at 3 mg/kg, po measured after 2 hr by MIB/MS competitive binding analysis; type: functional, organism-based
Mus musculus [18] = test: Inhibition of MIB binding to MEK2 in mouse kidney at 3 mg/kg, po measured after 2 hr by MIB/MS competitive binding analysis; type: functional, organism-based

Dual specificity mitogen-activated protein kinase kinase 1 (Homo sapiens), sequence (Q02750 whole entry): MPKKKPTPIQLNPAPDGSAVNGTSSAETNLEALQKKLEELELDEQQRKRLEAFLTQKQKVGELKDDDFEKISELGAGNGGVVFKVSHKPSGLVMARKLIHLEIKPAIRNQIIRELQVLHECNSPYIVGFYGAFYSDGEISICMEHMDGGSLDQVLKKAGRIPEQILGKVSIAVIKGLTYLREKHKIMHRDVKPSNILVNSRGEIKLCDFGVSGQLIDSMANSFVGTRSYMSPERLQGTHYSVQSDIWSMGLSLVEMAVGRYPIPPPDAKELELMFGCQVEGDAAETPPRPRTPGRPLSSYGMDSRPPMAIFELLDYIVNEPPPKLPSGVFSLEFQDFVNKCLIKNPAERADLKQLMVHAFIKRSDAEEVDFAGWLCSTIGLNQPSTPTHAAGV
Dual specificity mitogen-activated protein kinase kinase 2 (Homo sapiens), sequence (P36507 whole entry): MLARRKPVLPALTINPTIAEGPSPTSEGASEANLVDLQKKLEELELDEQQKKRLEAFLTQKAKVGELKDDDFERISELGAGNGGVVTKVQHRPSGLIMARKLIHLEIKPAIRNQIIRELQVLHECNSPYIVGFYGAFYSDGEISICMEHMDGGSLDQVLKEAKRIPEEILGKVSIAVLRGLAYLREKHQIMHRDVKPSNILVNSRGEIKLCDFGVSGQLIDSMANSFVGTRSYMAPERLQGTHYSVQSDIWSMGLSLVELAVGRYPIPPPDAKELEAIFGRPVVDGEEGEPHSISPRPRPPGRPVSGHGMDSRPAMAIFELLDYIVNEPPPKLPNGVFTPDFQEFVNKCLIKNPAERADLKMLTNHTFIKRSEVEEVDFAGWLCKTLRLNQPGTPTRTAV
Tyrosine-protein kinase receptor UFO (Homo sapiens), sequence (P30530 whole entry): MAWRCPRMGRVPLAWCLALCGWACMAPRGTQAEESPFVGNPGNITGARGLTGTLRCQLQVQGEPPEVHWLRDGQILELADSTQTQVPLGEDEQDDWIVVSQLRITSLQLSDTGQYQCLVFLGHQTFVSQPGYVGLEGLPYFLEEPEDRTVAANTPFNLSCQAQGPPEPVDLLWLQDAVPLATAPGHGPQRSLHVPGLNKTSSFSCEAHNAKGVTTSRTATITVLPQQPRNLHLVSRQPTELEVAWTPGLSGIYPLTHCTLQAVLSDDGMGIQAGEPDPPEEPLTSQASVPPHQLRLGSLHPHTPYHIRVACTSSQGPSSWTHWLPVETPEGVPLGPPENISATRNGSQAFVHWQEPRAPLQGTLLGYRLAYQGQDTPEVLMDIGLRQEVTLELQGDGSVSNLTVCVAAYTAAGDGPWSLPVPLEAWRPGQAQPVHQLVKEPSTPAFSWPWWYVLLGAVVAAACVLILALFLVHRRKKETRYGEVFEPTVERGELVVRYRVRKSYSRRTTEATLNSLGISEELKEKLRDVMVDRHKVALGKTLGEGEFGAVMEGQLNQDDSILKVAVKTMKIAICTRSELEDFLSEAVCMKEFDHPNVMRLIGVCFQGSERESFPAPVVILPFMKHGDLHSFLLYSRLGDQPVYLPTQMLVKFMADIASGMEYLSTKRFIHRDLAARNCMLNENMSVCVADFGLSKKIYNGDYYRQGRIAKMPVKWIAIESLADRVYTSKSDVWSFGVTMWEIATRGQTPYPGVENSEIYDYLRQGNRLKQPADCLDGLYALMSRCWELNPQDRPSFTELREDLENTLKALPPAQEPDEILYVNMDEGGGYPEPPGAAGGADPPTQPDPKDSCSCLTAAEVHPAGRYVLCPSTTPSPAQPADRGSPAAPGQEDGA
Calcium/calmodulin-dependent protein kinase type II subunit beta, sequence (Q13554 whole entry): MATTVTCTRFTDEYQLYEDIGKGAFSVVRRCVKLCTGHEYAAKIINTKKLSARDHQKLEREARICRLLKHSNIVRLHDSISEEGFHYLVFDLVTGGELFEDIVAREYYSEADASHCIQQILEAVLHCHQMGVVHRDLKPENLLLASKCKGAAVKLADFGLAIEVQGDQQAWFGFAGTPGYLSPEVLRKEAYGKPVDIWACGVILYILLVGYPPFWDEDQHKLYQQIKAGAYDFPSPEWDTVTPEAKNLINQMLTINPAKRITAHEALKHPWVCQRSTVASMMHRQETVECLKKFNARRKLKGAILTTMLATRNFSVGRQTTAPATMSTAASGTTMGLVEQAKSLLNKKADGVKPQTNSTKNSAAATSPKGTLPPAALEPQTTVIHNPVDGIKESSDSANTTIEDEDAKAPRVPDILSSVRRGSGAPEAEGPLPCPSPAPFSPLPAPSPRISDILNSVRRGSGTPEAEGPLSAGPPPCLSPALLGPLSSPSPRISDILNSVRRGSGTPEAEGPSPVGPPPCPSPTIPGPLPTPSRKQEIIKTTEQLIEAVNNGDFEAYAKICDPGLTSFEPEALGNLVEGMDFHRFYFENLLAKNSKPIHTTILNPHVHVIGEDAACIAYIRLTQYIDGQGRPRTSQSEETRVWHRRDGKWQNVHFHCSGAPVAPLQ
Calcium/calmodulin-dependent protein kinase type II subunit gamma, sequence (Q13555 whole entry): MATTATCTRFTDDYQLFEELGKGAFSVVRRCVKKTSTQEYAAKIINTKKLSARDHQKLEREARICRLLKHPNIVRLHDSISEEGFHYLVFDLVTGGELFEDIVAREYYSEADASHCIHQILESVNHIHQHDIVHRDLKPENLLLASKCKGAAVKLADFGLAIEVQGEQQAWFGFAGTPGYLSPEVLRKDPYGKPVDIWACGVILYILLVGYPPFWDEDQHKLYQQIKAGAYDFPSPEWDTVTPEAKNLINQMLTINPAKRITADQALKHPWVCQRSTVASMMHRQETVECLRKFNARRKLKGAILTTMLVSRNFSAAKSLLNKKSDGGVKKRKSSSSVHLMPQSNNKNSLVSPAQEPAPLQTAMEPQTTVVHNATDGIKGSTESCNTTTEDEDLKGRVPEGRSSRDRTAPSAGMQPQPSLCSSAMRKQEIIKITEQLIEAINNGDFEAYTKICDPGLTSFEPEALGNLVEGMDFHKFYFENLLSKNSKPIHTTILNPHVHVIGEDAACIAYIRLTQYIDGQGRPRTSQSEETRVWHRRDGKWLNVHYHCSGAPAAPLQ
Calcium/calmodulin-dependent protein kinase type II subunit delta, sequence (Q13557 whole entry): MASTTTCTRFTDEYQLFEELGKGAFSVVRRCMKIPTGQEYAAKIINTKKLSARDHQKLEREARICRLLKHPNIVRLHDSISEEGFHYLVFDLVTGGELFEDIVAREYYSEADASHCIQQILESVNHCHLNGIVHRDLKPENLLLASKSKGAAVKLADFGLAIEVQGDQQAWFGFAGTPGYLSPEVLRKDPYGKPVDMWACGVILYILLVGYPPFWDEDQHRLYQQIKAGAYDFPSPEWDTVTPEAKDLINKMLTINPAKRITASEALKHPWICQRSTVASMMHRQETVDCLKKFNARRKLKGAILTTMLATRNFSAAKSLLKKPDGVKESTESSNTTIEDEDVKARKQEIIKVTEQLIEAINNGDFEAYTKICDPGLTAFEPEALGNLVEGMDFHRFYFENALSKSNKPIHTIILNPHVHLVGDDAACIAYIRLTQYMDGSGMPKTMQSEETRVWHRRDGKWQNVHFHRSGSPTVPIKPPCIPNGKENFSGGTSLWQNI
Glycogen synthase kinase-3 beta (Homo sapiens), sequence (P49841 whole entry, looked up): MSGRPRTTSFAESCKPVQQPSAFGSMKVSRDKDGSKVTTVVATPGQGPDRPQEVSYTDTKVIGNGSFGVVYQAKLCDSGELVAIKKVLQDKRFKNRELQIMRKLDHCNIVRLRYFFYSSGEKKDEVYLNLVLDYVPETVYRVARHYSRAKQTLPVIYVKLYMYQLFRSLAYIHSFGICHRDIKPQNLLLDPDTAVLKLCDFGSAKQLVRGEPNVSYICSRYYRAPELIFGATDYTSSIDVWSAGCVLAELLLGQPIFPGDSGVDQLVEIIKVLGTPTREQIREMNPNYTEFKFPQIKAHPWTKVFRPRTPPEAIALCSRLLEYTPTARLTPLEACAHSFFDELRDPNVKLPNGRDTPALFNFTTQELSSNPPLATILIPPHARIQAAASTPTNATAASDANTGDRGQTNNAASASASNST
Tyrosine-protein kinase Yes (Homo sapiens), sequence (P07947 2-543 limits assumed): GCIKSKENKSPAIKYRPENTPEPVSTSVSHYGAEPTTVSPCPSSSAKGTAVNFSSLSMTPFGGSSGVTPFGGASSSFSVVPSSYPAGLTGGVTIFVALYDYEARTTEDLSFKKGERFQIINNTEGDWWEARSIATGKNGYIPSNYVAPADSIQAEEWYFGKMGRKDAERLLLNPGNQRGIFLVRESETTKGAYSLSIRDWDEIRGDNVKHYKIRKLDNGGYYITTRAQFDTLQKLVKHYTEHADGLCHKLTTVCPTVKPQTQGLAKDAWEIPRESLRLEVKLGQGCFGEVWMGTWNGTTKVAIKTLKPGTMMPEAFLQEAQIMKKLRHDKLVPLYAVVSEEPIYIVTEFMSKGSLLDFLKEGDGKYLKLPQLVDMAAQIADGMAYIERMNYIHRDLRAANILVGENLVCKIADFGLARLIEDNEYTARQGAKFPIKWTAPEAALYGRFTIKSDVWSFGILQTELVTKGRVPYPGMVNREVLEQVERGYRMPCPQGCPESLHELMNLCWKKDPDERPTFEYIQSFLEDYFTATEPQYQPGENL
Tyrosine-protein kinase Lyn (Homo sapiens), sequence (P07948 2-512 limits assumed): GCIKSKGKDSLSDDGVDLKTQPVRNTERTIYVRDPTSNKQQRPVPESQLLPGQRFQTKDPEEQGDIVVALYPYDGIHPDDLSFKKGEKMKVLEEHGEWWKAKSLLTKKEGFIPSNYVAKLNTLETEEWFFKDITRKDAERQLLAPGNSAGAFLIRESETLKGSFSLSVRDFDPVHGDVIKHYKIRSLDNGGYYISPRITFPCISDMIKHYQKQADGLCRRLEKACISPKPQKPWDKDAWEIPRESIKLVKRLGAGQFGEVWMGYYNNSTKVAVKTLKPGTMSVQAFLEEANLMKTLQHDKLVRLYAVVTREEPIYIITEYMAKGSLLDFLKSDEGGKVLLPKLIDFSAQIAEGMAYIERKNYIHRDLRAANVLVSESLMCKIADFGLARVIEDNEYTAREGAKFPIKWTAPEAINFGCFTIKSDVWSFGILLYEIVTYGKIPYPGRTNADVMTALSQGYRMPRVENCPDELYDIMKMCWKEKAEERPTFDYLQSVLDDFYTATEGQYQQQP

Cc1nc(Nc2ncc(C(=O)Nc3c(C)cccc3Cl)s2)cc(N2CCN(CCO)CC2)n1
inhibition [1]: Active
inhibition [2]: Active

CCN1CCN(Cc2ccc(Nc3ncc(F)c(-c4cc(F)c5nc(C)n(C(C)C)c5c4)n3)nc2)CC1 [ABEMACICLIB]
IC50 [3]: 3.5 nM
IC50 [4]: 2.6 nM
IC50 [5]: 52 nM

CC(=O)c1c(C)c2cnc(Nc3ccc(N4CCNCC4)cn3)nc2n(C2CCCC2)c1=O [PALBOCICLIB]
IC50 [3]: 1600 nM
Activity (RKO): inactive
Activity (L-M(TK-)): inactive

CN(C)C(=O)c1cc2cnc(Nc3ccc(N4CCNCC4)cn3)nc2n1C1CCCC1
inhibition [6]: Active
inhibition [7]: inactive

CC(=O)Nc1cccc(-n2c(=O)n(C3CC3)c(=O)c3c(Nc4ccc(I)cc4F)n(C)c(=O)c(C)c32)c1
inhibition [8]: Active
inhibition [9]: Active
inhibition [10]: inactive
inhibition [11]: Active
inhibition [12]: Active
inhibition [13]: inactive
inhibition [14]: Active
inhibition [15]: Active
inhibition [16]: inactive
inhibition (Mus musculus [17]): Active
inhibition (Mus musculus [18]): Active
